Source: patent US20080113956A1, “Substituted Porphyrins” (priority 1997, published 2008)
Where two headings read alike, the source gives them in different places.

How the values were obtained:
[1] = tested on: DNA; test: SOD activity in vitro in the presence of DNA (DNA interaction); format: biochemical
Source text: The “ortho effect” also decreases the toxicity. It is well known that porphyrins, and particularly cationic porphyrins, interact with DNA and can act as DNA cleavers. This fact can be an issue in the use of metallo-porphyrins as anti-tumor drugs. The present mimetics avoid this interaction.
In order to maximize the decrease in toxicity due to interaction with DNA, two derivatives of the ortho compound have been prepared which carry four ethyl or four butyl groups (“4” and “5”, respectively).

[2] = tested on: rat brain homogenates; test: Iron/ascorbate mediated lipid peroxidation of rat brain homogenates (TBARS); format: biochemical; details: for IC50: rat brain homogenate, 30 minutes incubation with iron and ascorbate, TBARS
Experimental: Frozen adult Sprague-Dawley rat brains (Pel-Freez, Rogers, Ark.) were homogenized with a polytron (Turrax T25, Germany) in 5 volumes of ice cold 50 mM potassium phosphate at pH 7.4. Homogenate protein concentration was determined with the Coomassie Plus protein assay (Pierce, Rockford, Ill.) using bovine serum albumin as a standard. The homogenate volume was adjusted with buffer to give a final protein concentration of 10 mg/ml and frozen as aliquots at […].
Rat brain homogenates (2 mg protein) were incubated with varying concentrations of antioxidant at 37° C. for 15 minutes. Oxidation of the rat brain homogenate was initiated by the addition of 0.1 ml of a freshly prepared anaerobic stock solution containing iron(II) chloride (0.25 mM) and ascorbate (1 mM) as previously reported (Braughler et al, J. Biol. Chem. 262:10438 (1987)). Samples (final volume 1 ml) were placed in a shaking water bath at 37° C. for 30 minutes. The reactions were stopped by the addition of 0.1 ml of a stock butylated hydroxytoluene (60 mM) solution in ethanol.
The concentration of thiobarbituric acid reactive species (TBARS) in rat brain homogenates was used as a index of lipid peroxidation (Bernhem et al, J. Biol. Chem. 174:257 (1948); Witz et al, J. Free Rad. Biol. Med. 2:33 (1986); Kikugawa et al, Anal. Biochem. 202:249 (1992); Jentzsch et al, Free Rad. Biol. Med. 20P251 (1996)). Malondialdehyde standards were obtained by adding 8.2 μl of 1,1,3,3-tetramethoxypropane in 10 ml of 0.01 M HCl and mixing for 10 minutes at room temperature. This stock was further diluted in water to give standards that ranged from 0.25 to 25 μM. Samples or standards (200 μl) were acidified with 200 μl of 0.2 M phosphoric acid in 1.5 ml locking microfuge tubes. The color reaction was initiated by the addition of 25 μl of a 0.11M thiobarbituric acid solution and samples were placed in a 90° C. heating block for 45 minutes. TBARS were extracted with 0.5 ml of n-butanol by vortexing samples for 3 minute and chilling on ice for 1 minute. The samples were then centrifuged at 12,000×g for 3 minutes, 150 μl aliquots of the n-butanol phase were placed in each well of a 96-well plate and read at 535 nm in a Thermomax platereader (Molecular Devices, Sunnyvale, Calif.) at 25° C. Sample absorbencies were converted to MDA equivalencies (μM) by extrapolation from the MDA standard curve. None of the antioxidants at concentrations employed in these studies affected the reaction of MDA standards with thiobarbituric acid and reactions without TBA were used as subtraction blanks.
Data were presented as their means ±SE. The inhibitory concentration of antioxidants that decreased the degree of lipid peroxidation by 50% (IC50) and respective 95% confidence intervals (CI) were determined by fitting a sigmoidal curve with variable slope to the data (GraphPad Prizm, San Diego, Calif.).

[3] = SOD activity in U/mg (reduction of cytochrome c or photoreduction of NBT); format: biochemical; details: for SOD: unit = amount that inhibits one half the reduction of cytochrome c or photoreduction of NBT
[4] = tested on: airway hyperreactivity; test: Airway hyperreactivity to methacholine in ovalbumin sensitized mice; format: in vivo, mouse; details: intratracheal 2 μg daily for 4 days, methacholine 20, 30 and 40 mg/ml
Experimental: Mice were sensitized by intraperitoneal injection of ovalbumin twice, 14 days apart. Fourteen days after the second i.p. injection they were challenged with aerosolized ovalbumin daily for three days. Forty-eight hours after the third inhalation of ovalbumin they were given a 1 minute methacholine challenge and airway hyperreactivity followed using a Buxco body plethysmograph. Significant increases in airway resistance as measured by the PENH index occurred at doses of 20, 30 and 40 mg/ml of methacholine. […] This dose of in TM-2-PyP is equivalent to 0.8 mg/kg whole body dose.

[5] = literature comparators, cited from earlier work
[6] = tested on: isolated, perfused mouse liver; test: Isolated, perfused mouse liver, global ischemia/reperfusion injury; details: 10 μm in perfusate
Experimental: The ability of Mn TE-2-PyP to attenuate injury associated with 60 minutes of global ischemia followed by 90 minutes of reperfusion was assessed in an isolated, perfused mouse liver model. Excised livers were perfused with a buffered salt solution for 15 minutes after which the metalloporphyrin was introduced into the perfusate and the liver perfused in a recirculating system for an additional 15 minutes. The livers were then rendered globally ischemic under normal thermic conditions for 60 minutes. Following the ischemic period the livers were perfused for 90 minutes with perfusate supplemented with 10 μm Mn TE-2-PyP. In this model the ischemia/reperfused livers have a marked release of hepatocellular enzymes, aspartate transaminase, alanine transaminase, and lactate dehydrogenase during the first 2½ minutes of reperfusion. This is followed by a progressive release of hepatocellular enzymes indicating hepatocellular injury over the 90 minute perfusion period. […] At the end of the experiments liver […]. […] They remain firm and with a normal texture to gross morphologic examination.

[7] = tested on: lung injury; test: Bronchopulmonary dysplasia model: premature neonatal baboon in 100% oxygen; format: in vivo
Source text: Neonatal baboons were delivered prematurely by Caesarian section and then treated either with 100% oxygen or only sufficient PRN FIO2 to maintain adequate arterial oxygenation. To establish the model, thirteen 100% oxygen treated animals and twelve PRN control animals were studied. Treatment with 100% oxygen results in extensive lung injury manifested by days 9 or 10 of exposure and characterized by delayed alveolarization, lung parenchymal inflammation, and poor oxygenation. This is characteristic of the human disease, bronchopulmonary dysplasia and is thought to be mediated, at least in part, by oxidative stress on the developing neonatal lung. In a first trial of Mn TE-2-PyP, a neonatal baboon was delivered at 140 days gestation and placed in 100% oxygen. The animal received 0.5 mg/kg/24 hr Mn TE-2-PyP qd given i.v. in a continuous infusion over the entire 10 day study period.

| Compound | interaction with DNA ([1]; SOD activity in vitro in the presence of DNA) | increase in potency as lipid peroxidation inhibitor, ortho vs para ([2]; MnTM-2-PyP vs MnTM-4-PyP) [fold] | IC50 [2] [µM] | difference in SOD activity, ortho vs para ([3]; MnTM-2-PyP vs MnTM-4-PyP) | SOD [3] | airway hyperreactivity (PENH index) [4] | kcat of comparison compounds ([5]; listed as MnTM-2-PyP^3−) | toxicity due to interaction with DNA, comparison between ortho derivatives ([1]; Table 2 and FIG. 3) | attenuation of liver injury ([6]; 60 minutes global ischemia, 90 minutes reperfusion) | acute hepatocellular enzyme release ([6]; first 2½ minutes of reperfusion) | progressive hepatocellular enzyme release ([6]; over the 90 minute perfusion period) | lung pathology: inflammation ([7]; 0.5 mg/kg/24 hr i.v., 10 days) | clinical decompensation of the lungs ([7]; days 9 and 10, 0.5 mg/kg/24 hr i.v.) | oxygenation index ([7]; neonatal baboon, 100% oxygen, 0.5 mg/kg/24 hr i.v. continuous infusion, 10 days) | lung pathology: lung injury ([7]; vs prior animals treated with 100% oxygen) | kcat of comparison compounds [5] |
| --- | --- | --- | --- | --- | --- | --- | --- | --- | --- | --- | --- | --- | --- | --- | --- | --- |
| manganese(III) 5,10,15,20-tetrakis(N-methylpyridyl)porphyrin [MnTM-2-PyP^5+] | greatly decreased | 15 | 1 | factor of six | 8,500 U/mg | statistically significant reduction | 6.0 10^7 M^−1 s^−1 |  |  |  |  |  |  |  |  |  |
| CC[n+]1ccccc1-c1c2nc(c(-c3cccc[n+]3CC)c3ccc([n-]3)c(-c3cccc[n+]3CC)c3nc(c(-c4cccc[n+]4CC)c4ccc1[n-]4)C=C3)C=C2.[Mn+3] [MnTE-2-PyP^5+, manganic meso-tetrakis-(N-ethylpyridinium-2-yl)porphyrin] |  |  |  |  |  |  |  | significantly less toxic than the methyl derivative | highly efficacious in attenuating the liver injury | blocking virtually all | blocking progressive hepatocellular enzyme release | absence of inflammation | no evidence of clinical decompensation | marked improvement | marked decrease |  |
| manganese(III) 5,10,15,20-tetrakis(N-methylpyridyl)porphyrin [MnTM-4-PyP^5+, reference compound] |  |  | 16 |  | 547 U/mg |  |  |  |  |  |  |  |  |  |  | 0.4 10^7 M^−1 s^−1 |
